From article PMC6702328, “A VDAC1-Derived N-Terminal Peptide Inhibits Mutant SOD1-VDAC1 Interactions and Toxicity in the SOD1 Model of ALS” (Frontiers in Cellular Neuroscience, 2019)

How the values were obtained:
ΔN-VDAC1 = biological target: T1, ΔN-VDAC1 (Mus musculus, UniProt Q60932); assay: Channel conductance of N-terminally truncated VDAC1 reconstituted into a planar lipid bilayer; format: biochemical, murine; conditions: after addition of 40 μg/ml SOD1, mean ± SEM
T1 construct: inferred from pET21a vector, XhoI cloning and Ni-NTA purification) (C); made in house; host or cells: Escherichia coli BL21(DE3)
T1 sequence (Q60932 40-296, stated change not applied): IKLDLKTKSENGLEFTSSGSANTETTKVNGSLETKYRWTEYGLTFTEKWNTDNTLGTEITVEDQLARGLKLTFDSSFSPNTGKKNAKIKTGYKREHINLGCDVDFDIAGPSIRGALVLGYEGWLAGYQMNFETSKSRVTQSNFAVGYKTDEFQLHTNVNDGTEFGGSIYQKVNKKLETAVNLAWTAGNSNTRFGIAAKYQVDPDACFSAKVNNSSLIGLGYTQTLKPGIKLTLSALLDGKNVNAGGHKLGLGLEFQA
Description: (§1) Protein expression was induced for 3 h using 1 mM isopropyl-β-D-thiogalactopyranoside (IPTG; Sigma). Proteins were purified on agarose-packed nickel-nitrilotriacetic acid resin (Ni-NTA; Qiagen) in the presence of 8 M urea. Refolding of the eluted protein was performed essentially as described previously ([Hiller et al., 2008]).
The reconstitution of recombinant WT or ΔN-VDAC1 into a planar lipid bilayer (PLB) prepared from soybean asolectin, and subsequent single channel current recordings and data analysis were carried out as described previously ([Gincel et al., 2001]). Currents were recorded under voltage-clamp conditions before and 5 min after the addition of 40 μg of recombinant hSOD1^wt, hSOD1^G93A, or hSOD1^G85R to the cis compartment using a Bilayer Clamp BC-535B amplifier (Warner Instrument, Hamden, CT, United States). Current amplitude histograms were prepared using AxoGraph X software. Relative conductance was determined as the average steady-state conductance at a given voltage normalized to the conductance at 10 mV, the maximal conductance. Relative conductance-voltage plots were prepared using Microsoft Excel software.
(C) Relative conductance of ΔN-VDAC1 as a function of voltage in a step from 60 to –60 mV before (▲) and after addition of SOD1^WT (Δ). Relative conductance (conductance/maximal conductance) was determined as the average steady-state conductance at a given voltage normalized to the conductance at 10 mV, taken as the maximal conductance. […] (E–H) Similar experiments as in (A–D), except that mutant SOD1^G93A was used. (I–L) Similar experiments as in (A–D), except that mutant SOD1^G85R was used.

[1] = biological target: T2, recombinant full length VDAC1 (Mus musculus, UniProt Q60932); assay: Channel conductance of full length VDAC1 reconstituted into a planar lipid bilayer; format: biochemical, murine; conditions: for Conductance, VDAC1 + SOD1: planar lipid bilayer, after addition of 40 μg/ml SOD1, mean ± SEM, SEM
T2 construct: inferred from pET21a vector, XhoI cloning and Ni-NTA purification) (C); made in house; host or cells: Escherichia coli BL21(DE3)
T2 sequence (Q60932 14-296): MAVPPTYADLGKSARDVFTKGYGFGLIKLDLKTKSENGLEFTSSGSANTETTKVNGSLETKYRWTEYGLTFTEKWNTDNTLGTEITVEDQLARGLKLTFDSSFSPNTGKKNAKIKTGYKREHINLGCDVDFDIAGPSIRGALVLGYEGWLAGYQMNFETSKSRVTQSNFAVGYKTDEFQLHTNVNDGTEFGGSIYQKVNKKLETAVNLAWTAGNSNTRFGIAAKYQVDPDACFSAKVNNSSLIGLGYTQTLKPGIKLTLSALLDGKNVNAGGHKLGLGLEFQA
Description: as §1
Currents were recorded under voltage-clamp conditions before and 5 min after the addition of 40 μg of recombinant hSOD1^wt, hSOD1^G93A, or hSOD1^G85R to the cis compartment using a Bilayer Clamp BC-535B amplifier (Warner Instrument, Hamden, CT, United States). Current amplitude histograms were prepared using AxoGraph X software. […] Relative conductance-voltage plots were prepared using Microsoft Excel software.
Relative conductance (conductance/maximal conductance) was determined as the average steady-state conductance at a given voltage normalized to the conductance at 10 mV, considered the maximal conductance.

NSC-34 cells = assay: Cell death, PI staining and flow cytometry, NSC-34; format: cell-based, mouse; conditions: 5 h, serum-free medium, 37°C
Description: (§2) NSC-34 cells, a mouse motor neuron-like hybrid cell line, the A549 human lung adenocarcinoma and U-87MG human glioblastoma cell lines were incubated with the (1-26)N-Ter-Antp, D-(15-26)N-Ter-Antp, (1-20)N-Ter-Antp, (5-20)N-Ter-Antp, or (10-20)N-Ter-Antp peptides in the appropriate serum-free growth medium for 5 h at 37°C. Cells were harvested, and analyzed for cell death using propidium iodide (PI) staining and flow cytometry. For XTT, the CellTiter 96 AQueous one-solution cell proliferation assay was used to follow cell viability as described previously ([Leyton-Jaimes et al., 2016]).
(§3) NSC-34 (A), U-87MG (B), or A549 (C) cells were incubated with the indicated concentrations of (1-26)N-Ter-Antp (∙), D-(15-26) (19-26)N-Ter-Antp (▲), (1-20)N-Ter-Antp (∘), (5-20)N-Ter-Antp (□) or (10-20)N-Ter-Antp (◆) peptide for 5 h. Cell death was analyzed using PI staining and flow cytometry. […] Cell viability analysis was performed with the CellTiter 96 AQueous one-solution cell proliferation assay with ELISA at 490 nm. […] The significance of quantitative analysis of triplicates of different biological repeats (n = 3) was performed by Student’s t-test; ^∗∗P < 0.01. […] Twenty-four hours post-transfection, the cells were incubated for 5 h with (10-20)N-Ter-Antp peptide (20 μM) and then analyzed for apoptosis using acridine orange and ethidium bromide staining, as described previously ([McGahon et al., 1995]). Fluorescence microscopy images were analyzed and about 100 to 300 cells were counted for each treatment in representative microscopic fields. The significance of quantitative analysis of triplicates of different biological repeats (n = 3) was performed by one-way Anova; ^∗∗P < 0.01.

U-87MG cells = assay: Cell death, PI staining and flow cytometry, U-87MG; format: cell-based, human; conditions: 5 h, serum-free medium, 37°C
Description: as §2, §3

A549 cells = assay: Cell death, PI staining and flow cytometry, A549; format: cell-based, human; conditions: 5 h, serum-free medium, 37°C
Description: as §2, §3

[2] = system: NSC-34 cells transfected to express human mutant SOD1^G93A; assay: Rescue of mutant SOD1^G93A toxicity, cell viability (XTT / CellTiter 96 AQueous); format: cell-based, mouse; conditions: NSC-34 cells expressing SOD1^G93A, increasing peptide concentrations, 5 h, XTT assay; n = 3
Description: as §2, §3
Cell viability was quantified using the XTT assay and apoptosis using acridine orange and ethidium bromide staining. […] Importantly, this effect was observed using the three non-cell death-inducing VDAC1-derived N-terminal peptides, i.e., the (1-20)-N-Ter-Antp, (5-20)-N-Ter-Antp and (10-20)-N-Ter-Antp peptides.

SOD1^WT = biological target: T3, SOD1^WT (Homo sapiens, UniProt P00441); assay: Microscale thermophoresis (MST) binding to SOD1^WT; conditions: read-out: EC50 (binding affinity, dissociation constant) of peptide to SOD1^WT
T3 construct: made in house; host or cells: sf-9 cells
T3 sequence (P00441 whole entry): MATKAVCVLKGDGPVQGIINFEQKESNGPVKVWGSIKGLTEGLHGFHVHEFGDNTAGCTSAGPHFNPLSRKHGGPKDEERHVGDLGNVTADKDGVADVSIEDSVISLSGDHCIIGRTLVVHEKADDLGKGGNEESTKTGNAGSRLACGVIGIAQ
Description: (§4) Recombinant hSOD1^wt, hSOD1^G93A, and hSOD1^G85R were expressed in sf-9 cells and purified by hydrophobic interaction chromatography using phenyl-Sepharose 6 Fast Flow high sub (Amersham Biosciences), followed by ion exchange chromatography using a HiTrap Q-Sepharose anion exchange column (Amersham Biosciences), as described previously ([Hayward et al., 2002]).
(§5) Microscale thermophoresis analysis was performed using a NanoTemper Monolith NT.115 apparatus, as recently described ([Wienken et al., 2010]; [Zillner et al., 2012]). […] The results are presented as the bound fraction, calculated as follows: fraction bound 100 × (F − Fmin)/(Fmax − Fmin).
(§6) MST measures any variation in the thermal movement of a fluorescently labeled binding partner. The subsequent fluorescence depletion in a heated spot of the protein solution is measured as a function of increasing interacting partner concentration, with dissociation constants (KD) values being derived from the depletion curves ([Wienken et al., 2010]; Figure 1D).
(§7) Molecular weight standards are presented. […] After 20 min of incubation, 3–5 μl aliquots were loaded into MST-grade glass capillaries (NanoTemper Technologies) and thermophoresis was measured with a NanoTemper Monolith-NT115 system. The percentage change in normalized fluorescence (ΔF Norm %) is plotted as a function of protein concentration. […]

SOD1^G93A = biological target: T4, SOD1^G93A (Homo sapiens, UniProt P00441, G94A); assay: Microscale thermophoresis (MST) binding to SOD1^G93A
T4 construct: made in house; host or cells: sf-9 cells
T4 sequence (P00441 whole entry G94A): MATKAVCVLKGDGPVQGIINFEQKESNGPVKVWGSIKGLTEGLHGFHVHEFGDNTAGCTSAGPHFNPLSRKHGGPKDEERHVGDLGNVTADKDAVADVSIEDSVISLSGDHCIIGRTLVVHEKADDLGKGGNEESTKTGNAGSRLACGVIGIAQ
Description: as §4, §5, §6, §7

SOD1^G85R = biological target: T5, SOD1^G85R (Homo sapiens, UniProt P00441, G86R); assay: Microscale thermophoresis (MST) binding to SOD1^G85R; conditions: fluorescently labeled SOD1^G85R 230 nM, peptide 0.001–50 μM, 10 mM HEPES pH 7.4, 20 min, duplicate reads of triplicate experiments, read-out: EC50 (binding affinity, dissociation constant) of peptide to SOD1^G85R
T5 construct: made in house; host or cells: sf-9 cells
T5 sequence (P00441 whole entry G86R): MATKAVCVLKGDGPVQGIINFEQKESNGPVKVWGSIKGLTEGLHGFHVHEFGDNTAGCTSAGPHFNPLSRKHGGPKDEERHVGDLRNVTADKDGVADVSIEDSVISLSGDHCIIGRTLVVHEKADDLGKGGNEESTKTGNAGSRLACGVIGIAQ
Description: as §4, §5, §6, §7

[3] = system: SH-SY5Y cells expressing mutant SOD1^G93A; assay: Apoptosis, acridine orange/ethidium bromide staining, SOD1^G93A; format: cell-based; conditions: peptide 20 μM, 5 h, 24 h post-transfection, n = 3
Description: (§8) Apoptotic cell death was also analyzed using Acridine Orange (AcOr)/ethidium bromide (EtBr) staining ([McGahon et al., 1995]). Cells in 24-well plates were washed with 200 μl PBS and 10 μl of a solution containing […] in PBS was added. The cells were then visualized by fluorescence microscopy (ZOE fluorescence cell imager, Bio-Rad), images were recorded and cells at early and late apoptotic stages were counted.
as §3, with “The significance of quantitative analysis of triplicates of different biological repeats (n = 3) was performed by one-way Anova; ^∗∗P < 0.01.” left out

[4] = system: SH-SY5Y cells expressing mutant SOD1^G37R; assay: Apoptosis, acridine orange/ethidium bromide staining, SOD1^G37R; format: cell-based; conditions: peptide 20 μM, 5 h, 24 h post-transfection, n = 3
Description: as §8
as §3, with “The significance of quantitative analysis of triplicates of different biological repeats (n = 3) was performed by one-way Anova; ^∗∗P < 0.01.” left out

[5] = system: SH-SY5Y cells expressing SOD1^G93A or SOD1^G37R; assay: Co-localization of misfolded SOD1 with VDAC1, immunostaining and confocal microscopy; format: cell-based; conditions: peptide 20 μM, 5 h, 24 h post-transfection; anti-VDAC1 and B8H10 antibodies
Description: For immunostaining, SH-SY5Y cells (4.5 × 10^4) were grown on sterilized coverslips in 24-well plates. 30 h post-transfection, cells were fixed using 4% paraformaldehyde (PFA; diluted in PBS) for 15 min, and then washed 3 times with PBS (5 min each wash). Cells were then permeabilized with 0.3% Triton X-100 in PBS for 5 min followed by washing with PBS. Cells were then blocked for 1 h with blocking buffer (1% BSA free fatty acids diluted in PBS). Anti-VDAC1 polyclonal antibody (ab15895) and mouse anti misfolded SOD1 (B8H10, Medimabs) were incubated at room temperature for 1–2 h in a buffer of 1% BSA free fatty acids and 0.3% Triton-X100 in PBS. Following incubation with primary antibodies, cells were washed with PBS and incubated with fluorescent conjugated secondary Alexa Flour 488 anti-rabbit and Alexa flour 647 anti-mouse antibodies. The coverslips were carefully dried and mounted on slides using Immumount (Immumount^TM, Thermo). After overnight drying, images were acquired on an Olympus IX81 confocal microscope.
Twenty-four hours post-transfection, the cells were incubated for 5 h with (10-20)N-Ter-Antp peptide (20 μM) and then analyzed for co-localization using a confocal microscope. […] Scale bar, 10 μm.

## SOD1^G93A: recombinant human mutant SOD1 G93A expressed in sf-9 cells
ΔN-VDAC1
  Conductance, ΔN-VDAC1 + SOD1: 3.45 ± 0.01 nS

## SOD1^WT: recombinant wild type human SOD1 expressed in sf-9 cells
[1]; highest concentration 60 μg/ml, current-time traces at −10 or 10 mV
  effect on VDAC1 current: had no effect on the current
[1]
  Conductance, VDAC1 + SOD1: 3.84 ± 0.1 nS
ΔN-VDAC1
  Conductance, ΔN-VDAC1 + SOD1: 3.69 ± 0.13 nS

## SOD1^G85R: recombinant human mutant SOD1 G85R expressed in sf-9 cells
[1]
  Conductance, VDAC1 + SOD1: 2.3 ± 0.35 nS
ΔN-VDAC1
  Conductance, ΔN-VDAC1 + SOD1: 3.92 ± 0.08 nS

## 5-PTYADLGKSARDVFTK-20- RQIKIWFQNRRMKWKK [(5-20)-N-Ter-Antp, like (1-20)-N-Ter-Antp but shortened by four amino acids at the N-terminus]
NSC-34 cells
  Cell death induction in NSC-34 cells: could not induce cell death
U-87MG cells
  Cell death induction in U-87MG cells: could not induce cell death
A549 cells
  Cell death induction in A549 cells: could not induce cell death
[2]
  Effect on SOD1^G93A toxicity (cell viability): reduced the toxic effect of SOD1^G93A in a concentration-dependent manner

## 1-MAVPPTYADLGKSARDVFTKG YGFGL-26- RQIKIWFQNRRMKWKK [(1-26)-N-Ter-Antp]
NSC-34 cells
  Cell death induction in NSC-34 cells: induced massive cell death
U-87MG cells
  Cell death induction in U-87MG cells: induced massive cell death
A549 cells
  Cell death induction in A549 cells: induced massive cell death

## 14-RDVFTKGYGFGL-26- RQIKIWFQNRRMKWKK [D-(15-26)-N-Ter-Antp]
NSC-34 cells
  Cell death induction in NSC-34 cells: induced massive cell death
U-87MG cells
  Cell death induction in U-87MG cells: induced massive cell death
A549 cells
  Cell death induction in A549 cells: induced massive cell death

## CSCC[C@H](N)C(=O)N[C@@H](C)C(=O)N[C@H](C(=O)N1CCC[C@H]1C(=O)N1CCC[C@H]1C(=O)N[C@H](C(=O)N[C@@H](Cc1ccc(O)cc1)C(=O)N[C@@H](C)C(=O)N[C@@H](CC(=O)O)C(=O)N[C@@H](CC(C)C)C(=O)NCC(=O)N[C@@H](CCCCN)C(=O)N[C@@H](CO)C(=O)N[C@@H](C)C(=O)N[C@@H](CCCNC(=N)N)C(=O)N[C@@H](CC(=O)O)C(=O)N[C@H](C(=O)N[C@@H](Cc1ccccc1)C(=O)N[C@H](C(=O)N[C@@H](CCCCN)C(=O)NCC(=O)N[C@@H](Cc1ccc(O)cc1)C(=O)NCC(=O)N[C@@H](Cc1ccccc1)C(=O)NCC(=O)N[C@@H](CC(C)C)C(=O)O)[C@@H](C)O)C(C)C)[C@@H](C)O)C(C)C [(1-26)N-Terminal]
SOD1^WT
  EC50: > 200 µM
SOD1^G93A
  EC50: 3.75 µM
SOD1^G85R
  EC50: 3.75 µM

## 159-ETAKSRVTQSNFAVGYKT-177 [LP3, reference compound]
SOD1^G93A; MST, fluorescently labeled SOD1^G93A 675 nM, LP3 6–40 μM, HEPES buffer
  Binding to mutant SOD1 compared with the (1-26)-N-terminal peptide: significantly lower binding to mutant SOD1

## 10-LGKSARDVFTK-20- RQIKIWFQNRRMKWKK [(10-20)-N-Ter-Antp, like (1-20)-N-Ter-Antp but shortened by nine amino acids at the N-terminus]
NSC-34 cells
  Cell death induction in NSC-34 cells: could not induce cell death
U-87MG cells
  Cell death induction in U-87MG cells: could not induce cell death
A549 cells
  Cell death induction in A549 cells: could not induce cell death
[2]
  Effect on SOD1^G93A toxicity (cell viability): reduced the toxic effect of SOD1^G93A in a concentration-dependent manner
[3]
  decrease of SOD1^G93A-mediated cell death: 68%
[4]
  decrease of SOD1^G37R-mediated cell death: 81%
[5]
  Co-localization of misfolded SOD1 with VDAC1: co-localization was greatly eliminated
